The structures appear in SMILES notation. Bridge positions count the residues as written; N and C are the ends. Square brackets hold non-standard residues; d marks the D form. Peptide text beside a SMILES is read from it. * marks the point of attachment. hPhe(3-Cl-4-CF3) = N[C@@H](CCc1ccc(C(F)(F)F)c(Cl)c1)C(=O)O; NMePhe(4-Cl) = CN[C@@H](Cc1ccc(Cl)cc1)C(=O)O; NMePhe(2-OMe) = CN[C@@H](Cc1ccccc1OC)C(=O)O; NMePhe(4-Me) = CN[C@@H](Cc1ccc(C)cc1)C(=O)O; NMeMet(O2) = CN[C@@H](CCS(C)(=O)=O)C(=O)O; NMePhe(2-Me) = CN[C@@H](Cc1ccccc1C)C(=O)O; Abu(4,4,4-F3) = N[C@@H](CC(F)(F)F)C(=O)O; NMeNva(5,5-F2) = CN[C@@H](CCC(F)F)C(=O)O; NMeGly(cPent) = CN[C@H](C(=O)O)C1CCCC1; Phe(3-I) = N[C@@H](Cc1cccc(I)c1)C(=O)O; Pro(4,4-F2) = O=C(O)[C@@H]1CC(F)(F)CN1; NMe3Pal = CN[C@@H](Cc1cccnc1)C(=O)O; NMeCha = CN[C@@H](CC1CCCCC1)C(=O)O; Ala(cPr) = N[C@@H](CC1CC1)C(=O)O; NMeChg = CN[C@H](C(=O)O)C1CCCCC1; NMeF = CN[C@@H](Cc1ccccc1)C(=O)O; NMeI = CC[C@H](C)[C@H](NC)C(=O)O; hPhe = N[C@@H](CCc1ccccc1)C(=O)O; NMeD = CN[C@@H](CC(=O)O)C(=O)O; NMeL = CN[C@@H](CC(C)C)C(=O)O; NMeV = CN[C@H](C(=O)O)C(C)C; NMeA = CN[C@@H](C)C(=O)O; Nle = CCCC[C@H](N)C(=O)O; Piperidide = C1CCN(*)CC1; Pyrrolidide = C1CCN(*)C1; Ac5c = NC1(C(=O)O)CCCC1; Aze = O=C(O)[C@@H]1CCN1; Sar = CNCC(=O)O

For this assay, the system named is Human pancreatic cancer cell line AsPC-1 (G12D mutation Kras). Nature of the assay: AsPC-1 cell growth inhibition (AsPC-1 CGI). The note with it: read-out: AsPC-1 cell growth inhibition, 50% growth inhibitory concentration (IC50 value); 96 hours, CellTiter-Glo, values classified in ranges. It is filed as cell-based. (In general: ATP-based viability assays read luminescence as a measure of living cells.)
Procedure: Test compounds were serially dilated with dimethyl sulfoxide, and 200 nL was then dispensed to a U-bottom 96-well plate using Labcyte Echo. […] The cell suspension was dispensed to a. plate containing a test compound at 100 μL per well and incubated at 37° C. in a 5% carbon dioxide gas incubator. 96 hours later, 80 μL of CellTiter-Glo (Promega) was added to each well and fluorescence was measured.
For `CC[C@H](C)[C@@H]1NC(=O)[C@H](CC(C)C)N(C)C(=O)C[C@@H](C(=O)N(C)C)N(C)C(=O)[C@H]([C@@H](C)CC)N(C)C(=O)[C@H](C)NC(=O)[C@H](Cc2cccnc2)N(C)C(=O)[C@H](CCc2ccc(C(F)(F)F)c(Cl)c2)NC(=O)CN(C)C(=O)[C@H](Cc2ccc(C)cc2)N(C)C(=O)[C@@H]2CCN2C(=O)[C@H](C)N(C)C1=O` [Compound 557] ([NMeL]I[NMeA][Aze][NMePhe(4-Me)][Sar][hPhe(3-Cl-4-CF3)][NMe3Pal]A[NMeI][NMeD]-NMe2; lactam N-11), the IC50 is above 500 nM.

`CCCC[C@@H]1NC(=O)[C@H](Cc2cccc(I)c2)NC(=O)CN(C)C(=O)[C@H](Cc2ccc(C)cc2)N(C)C(=O)CN(C)C(=O)CN(C)C(=O)[C@H]([C@@H](C)CC)NC(=O)[C@H](CC(C)C)N(C)C(=O)C[C@@H](C(=O)N2CCCCC2)N(C)C(=O)[C@H](CC(C)C)NC(=O)[C@H](C)N(C)C1=O` [Compound 232] ([NMeL]I[Sar][Sar][NMePhe(4-Me)][Sar][Phe(3-I)][Nle][NMeA]L[NMeD]-Piperidide; lactam N-11): the IC50 is above 500 nM.

Regarding `CC[C@H](C)[C@@H]1NC(=O)[C@H](CC(C)C)N(C)C(=O)C[C@@H](C(=O)N2CCCCC2)N(C)C(=O)[C@H](C(C)C)N(C)C(=O)C2(CCCC2)NC(=O)[C@@H]2CCCN2C(=O)[C@H](CCc2ccccc2)NC(=O)CN(C)C(=O)[C@H](CC2CCCCC2)N(C)C(=O)CN(C)C(=O)CN(C)C1=O` [Compound 265] ([NMeL]I[Sar][Sar][NMeCha][Sar][hPhe]P[Ac5c][NMeV][NMeD]-Piperidide; lactam N-11), the IC50 was above 500 nM.

Consider `CC[C@H](C)[C@@H]1NC(=O)[C@H](CC(C)C)N(C)C(=O)C[C@@H](C(=O)N(C)C)N(C)C(=O)[C@H]([C@@H](C)CC)N(C)C(=O)[C@H](C(C)C)NC(=O)[C@H](C)N(C)C(=O)[C@H](CCc2ccc(C(F)(F)F)c(Cl)c2)NC(=O)CN(C)C(=O)[C@H](Cc2ccc(C)cc2)N(C)C(=O)[C@@H]2CCN2C(=O)[C@H](C)N(C)C1=O` [Compound 4] ([NMeL]I[NMeA][Aze][NMePhe(4-Me)][Sar][hPhe(3-Cl-4-CF3)][NMeA]V[NMeI][NMeD]-NMe2; lactam N-11), for which the IC50 was above 500 nM.

For `CC[C@H](C)[C@@H]1NC(=O)[C@H](CC(C)C)N(C)C(=O)C[C@@H](C(=O)N2CCCCC2)N(C)C(=O)[C@H](C2CCCCC2)N(C)C(=O)C2(CCCC2)NC(=O)[C@@H]2CCCN2C(=O)[C@H](CCc2ccc(C(F)(F)F)c(Cl)c2)NC(=O)CN(C)C(=O)[C@H](CCS(C)(=O)=O)N(C)C(=O)CN(C)C(=O)CN(C)C1=O` [Compound 1094] ([NMeL]I[Sar][Sar][NMeMet(O2)][Sar][hPhe(3-Cl-4-CF3)]P[Ac5c][NMeChg][NMeD]-Piperidide; lactam N-11), the IC50 is above 500 nM.

For `CCCC[C@@H]1NC(=O)[C@H](Cc2cccc(I)c2)NC(=O)CN(C)C(=O)[C@H](Cc2ccc(Cl)cc2)N(C)C(=O)CN(C)C(=O)CN(C)C(=O)[C@H]([C@@H](C)CC)NC(=O)[C@H](CC(C)C)N(C)C(=O)C[C@@H](C(=O)N2CCCCC2)N(C)C(=O)[C@H](CC(C)C)NC(=O)[C@H](Cc2ccccc2OC)N(C)C1=O` [Compound 259] ([NMeL]I[Sar][Sar][NMePhe(4-Cl)][Sar][Phe(3-I)][Nle][NMePhe(2-OMe)]L[NMeD]-Piperidide; lactam N-11), the IC50 was above 500 nM.

Take `CC(C)C[C@H]1C(=O)N[C@@H](CC2CC2)C(=O)N(C)CC(=O)N(C)CC(=O)N(C)[C@@H](CC2CCCCC2)C(=O)N(C)CC(=O)N[C@@H](CCc2ccc(C(F)(F)F)c(Cl)c2)C(=O)N2CCC[C@H]2C(=O)NC2(CCCC2)C(=O)N(C)[C@@H](C(C)C)C(=O)N(C)[C@H](C(=O)N2CCCCC2)CC(=O)N1C` [Compound 421] ([NMeL][Ala(cPr)][Sar][Sar][NMeCha][Sar][hPhe(3-Cl-4-CF3)]P[Ac5c][NMeV][NMeD]-Piperidide; lactam N-11): the IC50 was above 500 nM.

As to `CC[C@H](C)[C@@H]1NC(=O)[C@H](CC(C)C)N(C)C(=O)C[C@@H](C(=O)N2CCCCC2)N(C)C(=O)[C@H](CCC(F)F)N(C)C(=O)C2(CCCC2)NC(=O)[C@@H]2CCCN2C(=O)[C@H](CCc2ccc(C(F)(F)F)c(Cl)c2)NC(=O)CN(C)C(=O)[C@H](CC2CCCCC2)N(C)C(=O)CN(C)C(=O)CN(C)C1=O` [Compound 1782] ([NMeL]I[Sar][Sar][NMeCha][Sar][hPhe(3-Cl-4-CF3)]P[Ac5c][NMeNva(5,5-F2)][NMeD]-Piperidide; lactam N-11), the IC50 was above 500 nM.

Turning to `CC[C@H](C)[C@@H]1NC(=O)[C@H](C)N(C)C(=O)C[C@@H](C(=O)N2CCCCC2)N(C)C(=O)[C@H](C(C)C)N(C)C(=O)C2(CCCC2)NC(=O)[C@@H]2CCCN2C(=O)[C@H](CCc2ccc(C(F)(F)F)c(Cl)c2)NC(=O)CN(C)C(=O)[C@H](Cc2ccccc2)N(C)C(=O)[C@@H]2CCCN2C(=O)CN(C)C1=O` [Compound 1753] ([NMeA]I[Sar]P[NMeF][Sar][hPhe(3-Cl-4-CF3)]P[Ac5c][NMeV][NMeD]-Piperidide; lactam N-11), the IC50 was above 500 nM.

Turning to `CC[C@H](C)[C@@H]1NC(=O)[C@H](CC(C)C)N(C)C(=O)C[C@@H](C(=O)N(C)C)N(C)C(=O)[C@H](C2CCCC2)N(C)C(=O)C2(CCCC2)NC(=O)[C@H](Cc2ccccc2C)N(C)C(=O)[C@H](CCc2ccc(C(F)(F)F)c(Cl)c2)NC(=O)CN(C)C(=O)[C@H](CC2CCCCC2)N(C)C(=O)[C@@H]2CCN2C(=O)[C@H](C)N(C)C1=O` [Compound 1880] ([NMeL]I[NMeA][Aze][NMeCha][Sar][hPhe(3-Cl-4-CF3)][NMePhe(2-Me)][Ac5c][NMeGly(cPent)][NMeD]-NMe2; lactam N-11), the IC50 is above 500 nM.

Regarding `CC[C@H](C)[C@@H]1NC(=O)[C@H](CC(C)C)N(C)C(=O)C[C@@H](C(=O)N2CCCC2)N(C)C(=O)[C@H](C2CCCC2)N(C)C(=O)C2(CCCC2)NC(=O)[C@@H]2CC(F)(F)CN2C(=O)[C@H](CCc2ccc(C(F)(F)F)c(Cl)c2)NC(=O)CN(C)C(=O)[C@H](CC2CCCCC2)N(C)C(=O)CN(C)C(=O)CN(C)C1=O` [Compound 1270] ([NMeL]I[Sar][Sar][NMeCha][Sar][hPhe(3-Cl-4-CF3)][Pro(4,4-F2)][Ac5c][NMeGly(cPent)][NMeD]-Pyrrolidide; lactam N-11), the IC50 is at most 20 nM.

With `CC(C)C[C@H]1C(=O)N[C@@H](CC(F)(F)F)C(=O)N(C)[C@@H](C)C(=O)N2CC[C@H]2C(=O)N(C)[C@@H](CC2CCCCC2)C(=O)N(C)CC(=O)N[C@@H](CCc2ccc(C(F)(F)F)c(Cl)c2)C(=O)N2CCC[C@H]2C(=O)NC2(CCCC2)C(=O)N(C)[C@@H](C(C)C)C(=O)N(C)[C@H](C(=O)N2CCCCC2)CC(=O)N1C` [Compound 1864] ([NMeL][Abu(4,4,4-F3)][NMeA][Aze][NMeCha][Sar][hPhe(3-Cl-4-CF3)]P[Ac5c][NMeV][NMeD]-Piperidide; lactam N-11), the IC50 is above 500 nM.

For `COC[C@@H]1NC(=O)[C@H](CC(C)C)N(C)C(=O)C[C@@H](C(=O)N2CCCCC2)N(C)C(=O)[C@H](C(C)C)N(C)C(=O)C2(CCCC2)NC(=O)[C@@H]2CCCN2C(=O)[C@H](CCc2ccc(C(F)(F)F)c(Cl)c2)NC(=O)CN(C)C(=O)[C@H](CC2CCCCC2)N(C)C(=O)[C@@H]2CCN2C(=O)[C@H](C)N(C)C1=O` [Compound 7] ([NMeL]S(Me)[NMeA][Aze][NMeCha][Sar][hPhe(3-Cl-4-CF3)]P[Ac5c][NMeV][NMeD]-Piperidide; lactam N-11), the IC50 was above 500 nM.

Source of the values: patent publication US20240148821A1, “PHARMACEUTICAL USE OF CYCLIC PEPTIDE COMPOUND” (CHUGAI SEIYAKU KABUSHIKI KAISHA, priority 2021, published 2024).
